How the values were obtained:
[1] = tested on: barnyardgrass (Echinochloa crus-galli); assay: Test A preemergence, barnyardgrass; type: in vivo; settings: Echinochloa crus-galli, pre-emergence, 240 h, 0 to 100 scale (0 no effect, 100 complete control), read-out: Plant response rating, Barnyardgrass
kochia (Kochia scoparia) [2] = assay: Test A preemergence, kochia; type: in vivo; settings: Bassia scoparia, pre-emergence, 240 h, 0 to 100 scale (0 no effect, 100 complete control), read-out: Plant response rating, Kochia
[3] = tested on: ragweed (common ragweed, Ambrosia elatior); assay: Test A preemergence, ragweed; type: in vivo; settings: Ambrosia artemisiifolia, pre-emergence, 240 h, 0 to 100 scale (0 no effect, 100 complete control), read-out: Plant response rating, Ragweed
[4] = tested on: ryegrass, Italian (Italian ryegrass, Lolium multiflorum); assay: Test A preemergence, ryegrass, Italian; type: in vivo; settings: Lolium multiflorum, pre-emergence, 240 h, 0 to 100 scale (0 no effect, 100 complete control), read-out: Plant response rating, Ryegrass, Italian
[5] = tested on: foxtail, green (green foxtail, Setaria viridis); assay: Test A preemergence, foxtail, green; type: in vivo; settings: Setaria, pre-emergence, 240 h, 0 to 100 scale (0 no effect, 100 complete control), read-out: Plant response rating, Foxtail, Green
[6] = tested on: pigweed (Amaranthus retroflexus); assay: Test A preemergence, pigweed; type: in vivo; settings: Amaranthus retroflexus, pre-emergence, 240 h, 0 to 100 scale (0 no effect, 100 complete control), read-out: Plant response rating, Pigweed
[7] = tested on: barnyardgrass (Echinochloa crus-galli); assay: Test A postemergence, barnyardgrass; type: in vivo; settings: Echinochloa crus-galli, post-emergence, 240 h, 0 to 100 scale (0 no effect, 100 complete control), read-out: Plant response rating, Barnyardgrass
kochia (Kochia scoparia) [8] = assay: Test A postemergence, kochia; type: in vivo; settings: Bassia scoparia, post-emergence, 240 h, 0 to 100 scale (0 no effect, 100 complete control), read-out: Plant response rating, Kochia
[9] = tested on: ragweed (common ragweed, Ambrosia elatior); assay: Test A postemergence, ragweed; type: in vivo; settings: Ambrosia artemisiifolia, post-emergence, 240 h, 0 to 100 scale (0 no effect, 100 complete control), read-out: Plant response rating, Ragweed
[10] = tested on: ryegrass, Italian (Italian ryegrass, Lolium multiflorum); assay: Test A postemergence, ryegrass, Italian; type: in vivo; settings: Lolium multiflorum, post-emergence, 240 h, 0 to 100 scale (0 no effect, 100 complete control), read-out: Plant response rating, Ryegrass, Italian
[11] = tested on: pigweed (Amaranthus retroflexus); assay: Test A postemergence, pigweed; type: in vivo; settings: Amaranthus retroflexus, post-emergence, 240 h, 0 to 100 scale (0 no effect, 100 complete control), read-out: Plant response rating, Pigweed
[12] = tested on: wheat (Triticum aestivum); assay: Test A postemergence, wheat; type: in vivo; settings: Triticum aestivum, post-emergence, 240 h, 0 to 100 scale (0 no effect, 100 complete control), read-out: Plant response rating, Wheat
corn (Zea mays) = assay: Test A postemergence, corn; type: in vivo; settings: Zea mays, post-emergence, 240 h, 0 to 100 scale (0 no effect, 100 complete control)
[13] = tested on: blackgrass (Alopecurus myosuroides); assay: Test A postemergence, blackgrass; type: in vivo; settings: Alopecurus myosuroides, post-emergence, 240 h, 0 to 100 scale (0 no effect, 100 complete control), read-out: Plant response rating, Blackgrass
[14] = tested on: galium (catchweed bedstraw, Galium aparine); assay: Test A postemergence, galium; type: in vivo; settings: Galium, post-emergence, 240 h, 0 to 100 scale (0 no effect, 100 complete control), read-out: Plant response rating, Galium
rice (Oryza sativa) = assay: Test B flooded paddy test, rice; settings: Oryza sativa, read-out: Plant response rating, Rice (0 to 100 scale, 0 is no effect, 100 is complete control)
[15] = tested on: ducksalad (Heteranthera limosa); assay: Test B flooded paddy test, ducksalad; settings: Heteranthera limosa, read-out: Plant response rating, Ducksalad (0 to 100 scale, 0 is no effect, 100 is complete control)
[16] = tested on: barnyardgrass (Echinochloa crus-galli); assay: Test B flooded paddy test, barnyardgrass; settings: Echinochloa crus-galli, read-out: Plant response rating, Barnyardgrass (0 to 100 scale, 0 is no effect, 100 is complete control)

Structure (SMILES): CCCC1OC(=O)Cc2cccc(Oc3ncc(Cl)cn3)c21 (stereo not drawn) [Compound 35, 8-[(5-Chloro-2-pyrimidinyl)oxy]-1,4-dihydro-1-propyl-3H-2-benzopyran-3-one]
- pest or weed control at 31 g/ha ([1]; 31 g ai/ha): 0%
- pest or weed control at 125 g/ha ([1]; 125 g ai/ha): 10%
- pest or weed control at 31 g/ha (kochia (Kochia scoparia) [2]; 31 g ai/ha): 0%
- pest or weed control at 125 g/ha (kochia (Kochia scoparia) [2]; 125 g ai/ha): 0%
- pest or weed control at 31 g/ha ([3]; 31 g ai/ha): 0%
- pest or weed control at 125 g/ha ([3]; 125 g ai/ha): 0%
- pest or weed control at 31 g/ha ([4]; 31 g ai/ha): 0%
- pest or weed control at 125 g/ha ([4]; 125 g ai/ha): 0%
- pest or weed control at 31 g/ha ([5]; 31 g ai/ha): 0%
- pest or weed control at 125 g/ha ([5]; 125 g ai/ha): 10%
- pest or weed control at 31 g/ha ([6]; 31 g ai/ha): 0%
- pest or weed control at 125 g/ha ([6]; 125 g ai/ha): 10%
- pest or weed control at 31 g/ha ([7]; 31 g ai/ha): 0%
- pest or weed control at 125 g/ha ([7]; 125 g ai/ha): 0%
- pest or weed control at 31 g/ha (kochia (Kochia scoparia) [8]; 31 g ai/ha): 20%
- pest or weed control at 125 g/ha (kochia (Kochia scoparia) [8]; 125 g ai/ha): 50%
- pest or weed control at 31 g/ha ([9]; 31 g ai/ha): 0%
- pest or weed control at 125 g/ha ([9]; 125 g ai/ha): 10%
- pest or weed control at 31 g/ha ([10]; 31 g ai/ha): 0%
- pest or weed control at 125 g/ha ([10]; 125 g ai/ha): 0%
- pest or weed control at 31 g/ha ([11]; 31 g ai/ha): 30%
- pest or weed control at 125 g/ha ([11]; 125 g ai/ha): 50%
- plant injury at 31 g/ha ([12]; 31 g ai/ha): 0%
- plant injury at 125 g/ha ([12]; 125 g ai/ha): 0%
- Corn plant response rating (crop injury, 0 = no effect, 100 = complete kill) at 31 g/ha (corn (Zea mays); 31 g ai/ha): 0%
- Corn plant response rating (crop injury, 0 = no effect, 100 = complete kill) at 125 g/ha (corn (Zea mays); 125 g ai/ha): 0%
- pest or weed control at 31 g/ha ([13]; 31 g ai/ha): 10%
- pest or weed control at 125 g/ha ([13]; 125 g ai/ha): 10%
- pest or weed control at 31 g/ha ([14]; 31 g ai/ha): 10%
- pest or weed control at 125 g/ha ([14]; 125 g ai/ha): 30%
- plant injury at 250 g/ha (rice (Oryza sativa)): 0%
- pest or weed control at 250 g/ha [15]: 0%
- pest or weed control at 250 g/ha [16]: 0%

— US11427549B2, “Pyrimidinyloxy benzo-fused compounds as herbicides” (FMC Corporation, priority 2017, dated 2022)
